Drawing on patent US20230295200A1 (REGENTS OF THE UNIVERSITY OF MICHIGAN, priority 2022, published 2023), this text covers Ki for 14 compounds.

Each structure is given as a SMILES string.

In the first test the target is T1, STAT6 protein (Homo sapiens, UniProt P42226).
T1 sequence (P42226 1-847): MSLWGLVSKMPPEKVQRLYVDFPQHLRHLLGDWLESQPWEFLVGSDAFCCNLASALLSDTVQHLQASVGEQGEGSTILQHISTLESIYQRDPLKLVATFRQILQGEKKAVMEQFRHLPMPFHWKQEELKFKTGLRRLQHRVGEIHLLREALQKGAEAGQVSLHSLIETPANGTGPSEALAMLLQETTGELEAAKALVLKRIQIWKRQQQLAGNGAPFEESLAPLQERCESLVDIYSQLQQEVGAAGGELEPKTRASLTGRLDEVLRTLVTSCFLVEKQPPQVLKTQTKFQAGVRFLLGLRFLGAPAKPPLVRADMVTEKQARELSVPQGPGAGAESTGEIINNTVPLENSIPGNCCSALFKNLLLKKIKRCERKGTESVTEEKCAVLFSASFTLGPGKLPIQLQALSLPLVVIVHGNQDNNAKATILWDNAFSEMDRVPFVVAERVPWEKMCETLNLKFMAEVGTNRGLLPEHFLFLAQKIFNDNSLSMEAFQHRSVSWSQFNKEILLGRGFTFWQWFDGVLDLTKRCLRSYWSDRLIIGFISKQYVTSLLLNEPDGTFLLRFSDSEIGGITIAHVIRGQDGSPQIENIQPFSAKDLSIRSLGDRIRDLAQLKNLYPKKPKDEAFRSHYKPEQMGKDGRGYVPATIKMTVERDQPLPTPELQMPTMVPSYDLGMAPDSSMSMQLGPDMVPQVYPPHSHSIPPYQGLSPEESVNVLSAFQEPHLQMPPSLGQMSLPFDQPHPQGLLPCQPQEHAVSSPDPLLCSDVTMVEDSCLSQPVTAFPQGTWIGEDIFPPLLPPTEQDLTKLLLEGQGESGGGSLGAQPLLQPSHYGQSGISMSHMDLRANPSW
As to the kind of experiment: Fluorescence polarization (FP) binding assay, STAT6. To be noted: FP competition, 5 nM fluorescein-labeled tracer, 200 nM protein, PBS pH7.4; read-out: Binding STAT6. In a few lines: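 Fluorescence polarization is read after STAT5 or STAT6 protein (200 nM) and a fluorescein-labeled tracer (5 nM) equilibrate for 1 h at room temperature in DTT-containing PBS pH 7.4 with BGG and Tween-20. Inhibition constants are obtained by nonlinear curve fitting.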
As for `CC(=O)N1CC[C@H]2CC[C@@H](C(=O)N(C)c3ccc(Br)cc3)N2C(=O)[C@@H](NC(=O)c2cc3cc(C(F)(F)P(=O)(O)O)ccc3s2)C1` [Compound 394, ((2-(((5S,8S,10aR)-3-acetyl-8-((4-bromophenyl)(methyl)carbamoyl)-6-oxodecahydropyrrolo[1,2-a][1,5]diazocin-5-yl)carbamoyl)benzo[b]thiophen-5-yl)difluoromethyl)phosphonic acid], the Ki was over 10 µM. Regarding `CC(=O)N1CC[C@H]2CC[C@@H](C(=O)N3CCC(C)(C4CC4)C3)N2C(=O)[C@@H](NC(=O)c2cc3cc(C(F)(F)P(=O)(O)O)ccc3s2)C1` (stereo partly drawn) [Compound 395, ((2-(((5S,8S,10aR)-3-acetyl-8-(3-cyclopropyl-3-methylpyrrolidine-1-carbonyl)-6-oxodecahydropyrrolo[1,2-a][1,5]diazocin-5-yl)carbamoyl)benzo[b]thiophen-5-yl)difluoromethyl)phosphonic acid], the Ki is over 10 µM.

In a further test the target is T2, STAT5A (Homo sapiens, UniProt P42229).
T2 sequence (P42229 1-794): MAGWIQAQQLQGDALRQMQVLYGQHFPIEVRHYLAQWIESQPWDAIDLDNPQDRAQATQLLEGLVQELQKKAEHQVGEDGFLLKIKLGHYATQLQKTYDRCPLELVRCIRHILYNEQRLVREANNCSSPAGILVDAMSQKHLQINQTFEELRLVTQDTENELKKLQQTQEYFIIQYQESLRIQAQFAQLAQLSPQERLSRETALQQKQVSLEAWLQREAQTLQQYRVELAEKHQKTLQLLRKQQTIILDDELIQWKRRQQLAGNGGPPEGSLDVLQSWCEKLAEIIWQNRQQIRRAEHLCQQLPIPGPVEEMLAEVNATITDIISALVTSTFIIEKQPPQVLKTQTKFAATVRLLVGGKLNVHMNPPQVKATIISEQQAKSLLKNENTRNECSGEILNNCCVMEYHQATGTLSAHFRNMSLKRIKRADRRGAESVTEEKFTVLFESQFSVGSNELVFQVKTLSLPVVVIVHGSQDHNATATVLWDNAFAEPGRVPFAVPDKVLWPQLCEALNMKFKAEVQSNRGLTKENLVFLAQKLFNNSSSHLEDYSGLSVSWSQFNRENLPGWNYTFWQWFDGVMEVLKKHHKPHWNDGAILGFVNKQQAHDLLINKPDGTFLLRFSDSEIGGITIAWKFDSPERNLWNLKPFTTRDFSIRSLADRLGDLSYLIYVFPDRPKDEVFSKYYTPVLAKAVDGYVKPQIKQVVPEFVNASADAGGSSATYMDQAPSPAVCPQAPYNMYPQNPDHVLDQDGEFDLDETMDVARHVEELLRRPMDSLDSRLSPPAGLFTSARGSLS
As to the kind of experiment: Fluorescence polarization (FP) binding assay, STAT5A. To be noted: FP competition, 5 nM fluorescein-labeled tracer, 200 nM protein, PBS pH7.4. Here is the method: Evaluation of the activity of the inhibitors may be accomplished by fluorescence polarization (FP) experiments. A representative general protocol is the following:
Fluorescence polarization (FP) experiments are performed in black round-bottom plates using the CLARIOstar microplate reader. To each well, fluorescein-labeled tracer and STAT5 or STAT6 protein are added in assay buffer. […] The inhibition constants are determined as the concentration of the STAT5 or STAT6 at which 50% of the ligand is bound.
Fluorescence polarization (FP) experiments were performed in 96-well, black round-bottom plates (Microfluor 2, Fisher Scientific) using the CLARIOstar microplate reader (BMG Labtech). To each well, 5 nM of fluoresceinlabeled tracer and 200 nM of STAT5 and/or STAT6 protein were added to a final volume of 100 μl in the assay buffer (PBS pH7.4+0.01% BGG+0.01% Tween-20, 2 mM DTT). The plate was mixed on a shaker for 15 m and incubated at room temperature for 1 h to reach equilibrium. […] All experimental data were analyzed using Prism 8.0 software (GraphPad Software), and the inhibition constants were determined by nonlinear curve fitting as the concentration of the STAT5 and/or STAT6 at which 50% of the ligand is bound.
On to `CC(C)(C)[C@H](NC(=O)c1cc2cc(C(F)(F)P(=O)(O)O)ccc2s1)C(=O)N1CCC[C@H]1C(=O)Nc1nccs1` [Compound 247, ((2-(((S)-3,3-dimethyl-1-oxo-1-((S)-2-(thiazol-2-ylcarbamoyl)pyrrolidin-1-yl)butan-2-yl)carbamoyl)benzo[b]thiophen-5-yl)difluoromethyl)phosphonic acid], for which the Ki is 1 to 10 µM. For `CC(C)(C)[C@H](NC(=O)c1cc2cc(C(F)(F)P(=O)(O)O)ccc2s1)C(=O)N1CCC[C@H]1C(=O)Nc1ncc(CO)s1` [Compound 248, (difluoro(2-(((S)-1-((S)-2-((5-(hydroxymethyl)thiazol-2-yl)carbamoyl)pyrrolidin-1-yl)-3,3-dimethyl-1-oxobutan-2-yl)carbamoyl)benzo[b]thiophen-5-yl)methyl)phosphonic acid], the Ki is over 10 µM. Still for that read-out and setting: the result for `CC(C)(C)[C@H](NC(=O)c1cc2cc(C(F)(F)P(=O)(O)O)ccc2s1)C(=O)N1CCC[C@H]1C(=O)Nc1ncc(C2CCOCC2)s1` [Compound 249, ((2-(((S)-3,3-dimethyl-1-oxo-1-((S)-2-((5-(tetrahydro-2H-pyran-4-yl)thiazol-2-yl)carbamoyl)pyrrolidin-1-yl)butan-2-yl)carbamoyl)benzo[b]thiophen-5-yl)difluoromethyl)phosphonic acid] reads 1 to 10 µM; that for `CC(C)(C)[C@H](NC(=O)c1cc2cc(C(F)(F)P(=O)(O)O)ccc2s1)C(=O)N1CCC[C@H]1C(=O)Nc1ncc(-c2cc3ccccc3[nH]2)s1` [Compound 250, ((2-(((S)-1-((S)-2-((5-(1H-indol-2-yl)thiazol-2-yl)carbamoyl)pyrrolidin-1-yl)-3,3-dimethyl-1-oxobutan-2-yl)carbamoyl)benzo[b]thiophen-5-yl)difluoromethyl)phosphonic acid], over 10 µM. As for `CC(C)c1cnc(NC(=O)[C@@H]2CCCN2C(=O)[C@@H](NC(=O)c2cc3cc(C(F)(F)P(=O)(O)O)ccc3s2)C(C)(C)C)s1` [Compound 251, (difluoro(2-(((S)-1-((S)-2-((5-isopropylthiazol-2-yl)carbamoyl)pyrrolidin-1-yl)-3,3-dimethyl-1-oxobutan-2-yl)carbamoyl)benzo[b]thiophen-5-yl)methyl)phosphonic acid], the Ki was over 10 µM. Regarding `CC(C)(C)c1cnc(NC(=O)[C@@H]2CCCN2C(=O)[C@@H](NC(=O)c2cc3cc(C(F)(F)P(=O)(O)O)ccc3s2)C(C)(C)C)s1` [Compound 252, ((2-(((S)-1-((S)-2-((5-(tert-butyl)thiazol-2-yl)carbamoyl)pyrrolidin-1-yl)-3,3-dimethyl-1-oxobutan-2-yl)carbamoyl)benzo[b]thiophen-5-yl)difluoromethyl)phosphonic acid], the Ki is over 10 µM. Consider `CCCc1cnc(NC(=O)[C@@H]2CCCN2C(=O)[C@@H](NC(=O)c2cc3cc(C(F)(F)P(=O)(O)O)ccc3s2)C(C)(C)C)s1` [Compound 253, ((2-(((S)-3,3-dimethyl-1-oxo-1-((S)-2-((5-propylthiazol-2-yl)carbamoyl)pyrrolidin-1-yl)butan-2-yl)carbamoyl)benzo[b]thiophen-5-yl)difluoromethyl)phosphonic acid], for which the Ki was over 10 µM. `CC(C)(C)[C@H](NC(=O)c1cc2cc(C(F)(F)P(=O)(O)O)ccc2s1)C(=O)N1CCC[C@H]1C(=O)Nc1ncc(C2CCCCC2)s1` [Compound 254, ((2-(((S)-1-((S)-2-((5-cyclohexylthiazol-2-yl)carbamoyl)pyrrolidin-1-yl)-3,3-dimethyl-1-oxobutan-2-yl)carbamoyl)benzo[b]thiophen-5-yl)difluoromethyl)phosphonic acid] gave a Ki of 1 to 10 µM. `CC(C)(C)[C@H](NC(=O)c1cc2cc(C(F)(F)P(=O)(O)O)ccc2s1)C(=O)N1CCC[C@H]1C(=O)Nc1ncc(-c2ccccc2)s1` [Compound 255, ((2-(((S)-3,3-dimethyl-1-oxo-1-((S)-2-((5-phenylthiazol-2-yl)carbamoyl)pyrrolidin-1-yl)butan-2-yl)carbamoyl)benzo[b]thiophen-5-yl)difluoromethyl)phosphonic acid] displayed a Ki of 0.1 to 1 µM. In the case of `Cc1ccccc1-c1cnc(NC(=O)[C@@H]2CCCN2C(=O)[C@@H](NC(=O)c2cc3cc(C(F)(F)P(=O)(O)O)ccc3s2)C(C)(C)C)s1` [Compound 256, ((2-(((S)-3,3-dimethyl-1-oxo-1-((S)-2-((5-(o-tolyl)thiazol-2-yl)carbamoyl)pyrrolidin-1-yl)butan-2-yl)carbamoyl)benzo[b]thiophen-5-yl)difluoromethyl)phosphonic acid], the Ki lay within 1 to 10 µM. `Cc1cccc(-c2cnc(NC(=O)[C@@H]3CCCN3C(=O)[C@@H](NC(=O)c3cc4cc(C(F)(F)P(=O)(O)O)ccc4s3)C(C)(C)C)s2)c1` [Compound 257, ((2-(((S)-3,3-dimethyl-1-oxo-1-((S)-2-((5-(m-tolyl)thiazol-2-yl)carbamoyl)pyrrolidin-1-yl)butan-2-yl)carbamoyl)benzo[b]thiophen-5-yl)difluoromethyl)phosphonic acid] yielded a Ki of 1 to 10 µM. In turn, `Cc1ccc(-c2cnc(NC(=O)[C@@H]3CCCN3C(=O)[C@@H](NC(=O)c3cc4cc(C(F)(F)P(=O)(O)O)ccc4s3)C(C)(C)C)s2)cc1` [Compound 258, ((2-(((S)-3,3-dimethyl-1-oxo-1-((S)-2-((5-(p-tolyl)thiazol-2-yl)carbamoyl)pyrrolidin-1-yl)butan-2-yl)carbamoyl)benzo[b]thiophen-5-yl)difluoromethyl)phosphonic acid] yielded a Ki of over 10 µM.
